From BindingDB's records for doi:10.1021/jm000013n (The University of Queensland, 2000) come the findings set out here.

The structures appear in SMILES notation.

The assay in a line: Inhibition of virion associated RT activity relative to untreated, infected control in cord blood mononuclear cells (CBMC) infected with HIV -1 TC354 strain.

As usually defined, the IC50 is the concentration that inhibits the measured activity by half. In the case of `O=C1N(Cc2ccc(CO)cc2)[C@H](Cc2ccccc2)[C@H](O)[C@@H](O)[C@@H](Cc2ccccc2)N1Cc1ccc(CO)cc1` [(4R,5S,6S,7R)-4,7-dibenzyl-5,6-dihydroxy-1,3-bis({[4-(hydroxymethyl)phenyl]methyl})-1,3-diazepan-2-one], the IC50 stood at 110 nM.

In turn, `CC[C@@H](C)[C@@H]1NC(=O)[C@@H](NC[C@@H](O)[C@H](Cc2ccccc2)NC(=O)[C@@H](NC(=O)c2ccc3ccccc3n2)C(C)C)Cc2ccc(cc2)OCCCNC1=O` registered an IC50 of 95 nM.
